From US20060045856A1, “Composition containing a dihydroxyacetone precursor” (priority 2004, published 2006)

Assays:
[1] = Maillard browning test, tanning test 2 (aqueous test substance reacted with lysine, with or without lipase); conditions: room temperature; for Maillard browning colour after reacting with lysine: 0.1M aqueous solution or suspension + 1M Lysine aqueous solution; for Maillard browning colour after reacting with lysine, + 1% lipase: aqueous
Description: (§1) The ability of compounds according to formula I to induce an artificial tanning on the skin can roughly be estimated using a simple Maillard browning test. This visual test is based on the principle that the reaction of skin with DHA to produce an artificial tan proceeds through a complex set of reactions (Maillard reaction) with free amino acids of skin proteins, particularly with arguinine, lysine and histidine.
(§2) The tanning ability of 2,5-dipalmitoyloxymethyl-[1,4]dioxane-2,5-diol (A) is evaluated by means of the Maillard browning effect after reacting with lysine in different solvents (water and the cosmetic oil miglyol) and compared with those of reference compounds: DHA and monomeric DHA-palmitic acid monoester (B) under the same conditions. Besides that, the tanning effect of 2,5-dipalmitoyloxymethyl-[1,4]dioxane-2,5-diol in the presence of lipases (enzymes used by the body to hydrolyse fats) is also studied.

[2] = Maillard browning test, tanning test 1 (test substance in miglyol reacted with lysine); conditions: for Maillard browning colour after reacting with lysine: Tanning test 1, 0.1M in miglyol + 1M Lysine aqueous solution, room temperature
Description: as §1, §2

[3] = DHA monomer/dimer content in aqueous solution at elevated temperature; type: physicochemical; conditions: DHA solutions at 30-50° C.
Description: It is assumed that the improved tanning effect at elevated temperatures in the case of 1,3-dihydroxyacetone is connected with the following mechanism. As a raw material, DHA is in the form of a powder and consists of dimers. Dissolved in water, some of the dimers convert to the active monomeric form, which brings about the tanning reaction. At an elevated water temperature, the amount of monomers increases. […] At the same time, the elevated temperature increases the reaction rate of the tanning reaction. […] It is therefore preferred according to the invention when the solution of the self-tanning substance is heated for about 15 min, but at least about 10 min, before the solution is applied to the human skin.

Maillard browning colour after reacting with lysine ([1]; 2 days) | melting point | Maillard browning colour after reacting with lysine ([1]; 1 h) | More active DHA monomers present than in DHA solutions at 20° C. [3] | Maillard browning colour after reacting with lysine ([1]; 5 h) | Maillard browning colour after reacting with lysine ([1]; 1 day) | Maillard browning colour after reacting with lysine, + 1% lipase ([1]; 1 h) | Maillard browning colour after reacting with lysine, + 1% lipase ([1]; 1 day) | Structure (SMILES) | Maillard browning colour after reacting with lysine ([2]; 5 h) | Maillard browning colour after reacting with lysine ([2]; 1 day) | Maillard browning colour after reacting with lysine ([2]; 8 days) | Ability to undergo Maillard browning reactions ([2]; overall conclusion from tanning tests 1 and 2) | Maillard browning colour after reacting with lysine ([2]; 1 h)
Brown | 95.2 °C | – | – | – | – | – | – | CCCCCCCCCCCCCCCC(=O)OCC1(O)COC(O)(COC(=O)CCCCCCCCCCCCCCC)CO1 (stereo not shown) [A, 2,5-dipalmitoyloxymethyl-[1,4]dioxane-2,5-diol] | Light yellow | Yellow | Brown | able to undergo Maillard browning reactions | –
– | – | Brown | up to 30% | – | – | – | – | O=C(CO)CO [DHA, 1,3-dihydroxyacetone] | Light yellow | Brown | Dark brown | – | –
– | – | – | – | Yellow | Brown | Yellow | Brown | CCCCCCCCCCCCCCCC(=O)OCC(=O)CO [B, monomeric DHA-palmitic acid monoester] | Yellow | Brown | Dark brown | – | Light yellow
